Laboratory results from article PMC9404989, “Design and Evaluation of Short Bovine Lactoferrin-Derived Antimicrobial Peptides against Multidrug-Resistant Enterococcus faecium” (Antibiotics, 2022).
In brackets after ≈: the same amount, converted by molar mass. Where two headings read alike, the source gives them in different places. No end group written: not given here.

Columns and labels:
E. faecium strain C68 [1] = experiment: microbe, parasite or virus in culture; assay type: cell-based, Enterococcus faecium; conditions: for MIC: Enterococcus faecium, C68; for MIC + CaCl2 (2.5 mM) / MIC + MgSO4 (1 mM) / MIC + NaCl (150 mM) / MIC + ZnSO4 (8 µM): strain C68, 18 h
Experimental: (§1) To determine the MICs of peptides, we used the broth microdilution method described by the Clinical and Laboratory Standards Institute. We made serial dilutions of 10× concentration (10 µL) for each peptide in duplicates in 96-well plates (Cat No. 3595, Corning, New York, NY, USA). We added 90 µL of logarithmic-phase bacteria at 5 × 10^5 CFU/mL (in BHI media) to the peptides and then incubated the plates at 37 °C for 18 h. We measured the OD600 absorbance readings using the Spectra Max i3x spectrophotometer (Molecular Devices, San Jose, CA, USA) and determined the MIC as the peptide concentration that inhibits the growth of bacteria.
To investigate the activity of peptides in various salt concentrations, we included physiologically relevant salts in the BHI medium.

E. faecium WC176 = experiment: organism not typed; assay type: cell-based, Enterococcus faecium; conditions: for MIC: read-out: MIC WC176; for MIC WC176: WC176, 18 h
Experimental: as §1

E. faecium D25 = experiment: microbe, parasite or virus in culture; assay type: cell-based, Enterococcus faecium
Experimental: as §1

E. faecium D14 = experiment: microbe, parasite or virus in culture; assay type: cell-based, Enterococcus faecium
Experimental: as §1

E. faecium strain C68 [2] = experiment: microbe, parasite or virus in culture; assay type: cell-based, Enterococcus faecium
Experimental: as §1

E. faecium E007 = experiment: microbe, parasite or virus in culture; assay type: cell-based, Enterococcus faecium; conditions: for MIC: Enterococcus faecium; for MIC E007: E007, 18 h
Experimental: as §1

E. faecium D24 = experiment: microbe, parasite or virus in culture; assay type: cell-based, Enterococcus faecium
Experimental: as §1

E. faecium D29 = experiment: microbe, parasite or virus in culture; assay type: cell-based, Enterococcus faecium
Experimental: as §1

[3] = tested on: E. faecium strain C68 on porcine skin; experiment: Ex vivo porcine skin infection assay; set-up: species or system Enterococcus faecium; conditions: exponential cells
Description: We evaluated the efficacy of designed lactoferrin AMPs in an ex vivo porcine skin model previously described with minor modifications. We first cleaned the shaved porcine skin (Fisher Scientific, Hampton, NH, USA) with 70% ethanol and then water, and glued polyethylene tubing (5 mm) (Nalgene VWR 228-0170, Radnor, PA, USA) to the skin samples with cyanoacrylate glue (Fisher Scientific, Hampton, NH, USA). Using disposable razors, we cut each piece of skin glued to the tube and inserted it into a 12-well tissue culture plate (Falcon, Cat No. 353182). We infected each skin with 1 × 10^6 CFU of exponential or persister E. faecium strain C68 cells in a total volume of 10 µL. Following an incubation of 1 h at 37 °C, we treated the skin with 50 µL with 5L and 6L at concentrations of 10× or 1× MIC. After an additional 4 h of incubation at 37 °C, we washed each tubing well with 250 µL of PBS (pH 7.4) containing 0.05% Triton X-100 to remove bacteria. After serially diluting the bacterial sample, we counted their CFUs.

S. aureus MW2 = experiment: microbe, parasite or virus in culture; assay type: cell-based, Staphylococcus aureus; conditions: for MIC S. aureus MW2: MW2, 18 h
Experimental: as §1

E. faecalis V583 = experiment: microbe, parasite or virus in culture; assay type: cell-based; conditions: for MIC E. faecalis V583: V583, 18 h
Experimental: as §1

E. faecalis MMH594 = experiment: microbe, parasite or virus in culture; assay type: cell-based; conditions: for MIC E. faecalis MMH594: MMH594, 18 h
Experimental: as §1

E. faecalis OG1RF = experiment: MIC assay, E. faecalis OG1RF; assay type: cell-based; conditions: rifampin and fusidic acid resistant
Experimental: as §1

[4] = HPLC retention time on C18 reverse-phase column; assay type: physicochemical
Description: Table 1 Physical parameters and the minimal inhibitory concentration (µg/mL) of designed peptides against E. faecium. | column: rT ^f (min)

[5] = tested on: E. faecium E007 established biofilms; assay type: cell-based, Enterococcus faecium; conditions: for concentration killing 50% of live bacteria cells in established biofilms: strain E007, 24 h established biofilms, XTT; for established biomass disrupted: strain E007, at 32 µg/mL
[6] = tested on: E. faecium strain C68 established biofilms; assay type: cell-based, Enterococcus faecium
Experimental: We prepared exponential cultures of E. faecium strain C68 (adjusted to 1 × 10^8 CFU/mL) in BHI media (supplemented with 0.2% glucose) from overnight grown cultures. We added 100 µL of the bacterial culture to wells of flat-bottomed 96-well polystyrene microtiter plates (Cat No. 3595, Corning, NY, USA). We then incubated the plates at 37 °C for 24 h in static conditions to allow biofilm formation. After incubation, we carefully pipetted out the media and washed the wells with PBS (Gibco, Waltham, MA, USA) to remove loosely attached planktonic cells. We treated the established biofilms in each well with 10 µL of serially diluted 10× peptide solution, followed by the addition of 90 μL of BHI media (supplemented with 0.2% glucose). The plates were incubated for another 24 h at 37 °C before processing for biomass and live-cell contents. We quantitated the concentration of peptide that disrupts 50% of established biofilms (MBEC50).

[7] = tested on: E. faecium C68 biofilm formation; experiment: Prevention of E. faecium biofilm formation (XTT, crystal violet); assay type: cell-based, Enterococcus faecium; conditions: XTT, 24 h, BHI + 0.2% glucose
Experimental: We evaluated the ability of the lactoferrin-derived peptides to inhibit biofilm formation following an established protocol with modifications. In short, we prepared exponential cultures of E. faecium C68 (adjusted to OD600 = 0.01) in BHI media (supplemented with 0.2% glucose) from overnight grown cultures. We added 90 µL of the bacterial culture to 10 µL of serially diluted 10× peptide solution in flat-bottomed 96-well polystyrene microtiter plates (Cat No. 3595, Corning, NY, USA) and then incubated the plates at 37 °C for 24 h. We considered media containing bacteria and water as the positive control, while media with water served as the negative control. After incubation, we carefully pipetted out the media and washed the wells with PBS (Gibco, Waltham, MA, USA) to remove loosely attached planktonic cells. We quantified the biomass by staining the biofilms with crystal violet following an established protocol and quantitated the concentration of peptide that inhibits 50% of biofilm formation (MBIC50). Furthermore, we measured the live cell count of the biofilms using XTT [2,3-bis(2-methyloxy-4-nitro-5-sulfophenyl)-2H-tertazolium-5-carboxanilide] dye (ATCC, Manassas, VA, USA). We calculated the percentage of biofilm growth by assuming that there was 100% biofilm growth in wells with bacteria without peptide treatment.

[8] = tested on: drug-resistant E. faecium clinical isolates; assay type: cell-based, Enterococcus faecium; conditions: strains D14, D24, D25, D29, C68 and WC176
Experimental: as §1

Compound	MIC S. aureus MW2 (S. aureus MW2)	MIC E. faecalis V583 (E. faecalis V583)	MIC E. faecalis MMH594 (E. faecalis MMH594)	rT (HPLC retention time) [4]	MIC + CaCl2 (2.5 mM) (E. faecium strain C68 [1])	MIC + MgSO4 (1 mM) (E. faecium strain C68 [1])	MIC + NaCl (150 mM) (E. faecium strain C68 [1])	MIC + ZnSO4 (8 µM) (E. faecium strain C68 [1])	MIC E. faecalis OG1RF (E. faecalis OG1RF)	MIC EF C68 (E. faecium strain C68 [2]; strain C68, 18 h)	MIC Media Only (E. faecium strain C68 [2]; strain C68, 18 h)	other results
CC1(C)S[C@@H]2[C@H](NC(=O)[C@H](N)c3ccccc3)C(=O)N2[C@H]1C(=O)O [Ampicillin, reference compound]	–	–	–	–	–	–	–	–	–	–	–	MIC (E. faecium strain C68 [1]; BHI + 8 µM ZnSO4, read-out: MIC + ZnSO4 (8 µM)): > 32 µg/mL; MIC (E. faecium strain C68 [1]; BHI + 1 mM MgSO4, read-out: MIC + MgSO4 (1 mM)): > 32 µg/mL; MIC (E. faecium strain C68 [1]; BHI + 2.5 mM CaCl2, read-out: MIC + CaCl2 (2.5 mM)): > 32 µg/mL; MIC (E. faecium strain C68 [1]; BHI + 150 mM NaCl, read-out: MIC + NaCl (150 mM)): > 32 µg/mL; MIC (E. faecium WC176): > 32 µg/mL; MIC (E. faecium D25; Enterococcus faecium, D25; read-out: MIC D25): > 32 µg/mL; MIC (E. faecium D14; Enterococcus faecium, D14; read-out: MIC D14): ≥ 32 µg/mL; MIC (E. faecium strain C68 [2]; Enterococcus faecium, C68, 18 h; read-out: MIC EF C68): > 32 µg/mL; MIC (E. faecium strain C68 [2]; Enterococcus faecium, C68; BHI media only, 37 °C, 18 h; read-out: MIC Media Only): > 32 µg/mL; MIC (E. faecium E007; E007, tetracycline-resistant strain, read-out: MIC E007): > 32 µg/mL; MIC (E. faecium D24; Enterococcus faecium, D24; read-out: MIC D24): > 32 µg/mL; MIC (E. faecium D29; Enterococcus faecium, D29; read-out: MIC D29): > 32 µg/mL
CNC(C)C1CCC(N)C(OC2C(N)CC(N)C(OC3OCC(C)(O)C(NC)C3O)C2O)O1 (stereo not shown) [Gentamicin, reference compound]	–	–	–	–	–	–	–	–	–	–	–	bacterial burden, control antibiotic [3]: ineffective in reducing the bacterial burden
CN[C@H](CC(C)C)C(=O)N[C@H]1C(=O)N[C@@H](CC(N)=O)C(=O)N[C@H]2C(=O)N[C@H]3C(=O)N[C@H](C(=O)N[C@H](C(=O)O)c4cc(O)cc(O)c4-c4cc3ccc4O)[C@H](O)c3ccc(c(Cl)c3)Oc3cc2cc(c3O[C@@H]2O[C@H](CO)[C@@H](O)[C@H](O)[C@H]2O[C@H]2C[C@](C)(N)[C@H](O)[C@H](C)O2)Oc2ccc(cc2Cl)[C@H]1O [Vancomycin, reference compound]	–	–	–	–	–	–	–	–	–	–	–	MIC (S. aureus MW2; Staphylococcus aureus, MRSA, read-out: MIC S. aureus MW2): 1 µg/mL (≈ 0.69 µM); MIC (E. faecalis V583; Enterococcus faecalis, V583, read-out: MIC E. faecalis V583): > 32 µg/mL; MIC (E. faecalis MMH594; Enterococcus faecalis, MMH594, read-out: MIC E. faecalis MMH594): > 32 µg/mL; MIC (E. faecalis OG1RF; Enterococcus faecalis, OG1RF): > 32 µg/mL; MIC (E. faecium WC176): 16 µg/mL (≈ 11 µM); MIC (E. faecium D25; Enterococcus faecium, D25, read-out: MIC D25): 1 µg/mL (≈ 0.69 µM); MIC (E. faecium D14; Enterococcus faecium, D14, read-out: MIC D14): 2 µg/mL (≈ 1.38 µM); MIC (E. faecium strain C68 [2]; Enterococcus faecium, C68, 18 h, read-out: MIC EF C68): > 32 µg/mL; MIC (E. faecium E007; E007, read-out: MIC E007): 1 µg/mL (≈ 0.69 µM); MIC (E. faecium D24; Enterococcus faecium, D24, read-out: MIC D24): 1 µg/mL (≈ 0.69 µM); MIC (E. faecium D29; Enterococcus faecium, D29, read-out: MIC D29): 1 µg/mL (≈ 0.69 µM)
LRWLWRRRWLWR-NH2 [Peptide 3L]	> 32 µg/mL	> 32 µg/mL	> 32 µg/mL	16.145 min	>32 µg/mL	8 µg/mL	16 µg/mL	4 µg/mL	> 32 µg/mL	16 µg/mL	16 µg/mL	–
RLWLWRRRWLWR-NH2 [Peptide 4L]	> 32 µg/mL	> 32 µg/mL	> 32 µg/mL	18.377 min	>32 µg/mL	8 µg/mL	8 µg/mL	4 µg/mL	> 32 µg/mL	4 µg/mL	4 µg/mL	–
RRWLWRL-NH2 [Peptide 2L]	> 32 µg/mL	> 32 µg/mL	> 32 µg/mL	13.321 min	–	–	–	–	> 32 µg/mL	>32 µg/mL	>32 µg/mL	–
RRWLWRRLWLWR-NH2 [Peptide 7L]	> 32 µg/mL	> 32 µg/mL	> 32 µg/mL	16.290 min	8 µg/mL	4 µg/mL	4 µg/mL	2 µg/mL	> 32 µg/mL	4 µg/mL	4 µg/mL	concentration killing 50% of live bacteria cells in established biofilms [5]: > 32 µg/mL; established biomass disrupted [5]: 25–30%; MBEC50 (established biomass) ([6]; 24 h established biofilms, 24 h treatment, crystal violet): failed to achieve an MBEC50; MIC WC176 (E. faecium WC176): 16 µg/mL; MIC D25 (E. faecium D25; D25, 18 h): 4 µg/mL; MIC D14 (E. faecium D14; D14, 18 h): 8 µg/mL; MIC E007 (E. faecium E007): 4 µg/mL; MIC D24 (E. faecium D24; D24, 18 h): 4 µg/mL; MIC D29 (E. faecium D29; D29, 18 h): 8 µg/mL
RRWLWRRRWLWL-NH2 [Peptide 8L]	> 32 µg/mL	> 32 µg/mL	> 32 µg/mL	21.235 min	16 µg/mL	4 µg/mL	4 µg/mL	2 µg/mL	> 32 µg/mL	4 µg/mL	4 µg/mL	concentration killing 50% of live bacteria cells in established biofilms [5]: > 32 µg/mL; established biomass disrupted [5]: 25–30%; MBEC50 (established biomass) ([6]; strain C68 established biofilms, 24 h): 30 µg/mL; concentration killing 50% of live bacterial cells during biofilm formation stage [7]: 2.8 µg/mL; MIC range against clinical isolates of E. faecium [8]: 8 to 32 µg/mL; MIC WC176 (E. faecium WC176): 16 µg/mL; MIC D25 (E. faecium D25; D25, 18 h): 8 µg/mL; MIC D14 (E. faecium D14; D14, 18 h): 16 µg/mL; MIC E007 (E. faecium E007): 4 µg/mL; MIC D24 (E. faecium D24; D24, 18 h): 8 µg/mL; MIC D29 (E. faecium D29; D29, 18 h): 32 µg/mL
RRWQWRLLLL-NH2 [Peptide 1L]	> 32 µg/mL	> 32 µg/mL	> 32 µg/mL	18.083 min	32 µg/mL	8 µg/mL	4 µg/mL	4 µg/mL	> 32 µg/mL	16 µg/mL	16 µg/mL	–
